US11976042B1, “9-(5-bromo-2-hydroxyphenyl)-10-[3-(dimethylamino)propyl]-3,4,6,7,9,10-hexahydroacridine-1,8(2H,5H)-dione as an antimicrobial compound” (KING FAISAL UNIVERSITY, priority 2023, dated 2024)

Legend:
Test in all cases: antimicrobial activity by agar dilution
Format in all cases: cell-based
Conditions in all cases: after 10, 20, 40 and 60 minutes at all dilutions 1:100 to 1:800
E. Coli = test system: E. Coli
Method: (§1) The antimicrobial properties of the synthesized compound 9-(5-bromo-2-hydroxyphenyl)-10-[3-(dimethylamino)propyl]-3,4,6,7,9,10-hexahydroacridine-1,8(2H,5H)-dione were studied by the method of agar dilution. Test solutions of each compound were prepared in a concentration of 1% using dimethylformamide as a solvent. Then they were diluted in a physiological solution to obtain the final experimental dilutions 1:100, 1:200, 1:400, and 1:800. The effect of these substances were compared with furacillin in a controllable study. The testing microbes used were gram positive bacteria St. Aereus, gram negative bacteria E. Coli and Ps. Aeruginosa, and Candida albicans fungi. The experiments used for this survey were meat-pentonlu agar (EPA) for cultivation of bacteria and Saburo environment for fungi. Each experiment used 1 ml of test solution on each plate 500 min. Add 2 drops of emulsified with microbes feel. All experimental samples were taken from the agar after 10, 20, 40, 60 minutes in the environment on the basis of Patrk planted. Bacteria were cultivated at a temperature of 37° C. for 1 day and the mushroom was kept in a thermostat for […] at a temperature of 28° C. Then the results were checked.

Ps. Aeruginosa = test system: Ps. Aeruginosa
Method: as §1

St. Aereus = test system: St. Aereus
Method: as §1

Candida albicans = test system: Candida albicans
Method: as §1

Measured: inhibition activity

CN(C)CCCN1C2=C(C(=O)CCC2)C(c2cc(Br)ccc2O)C2=C1CCCC2=O [9-(5-bromo-2-hydroxyphenyl)-10-[3-(dimethylamino)propyl]-3,4,6,7,9,10-hexahydroacridine-1,8(2H,5H)-dione]
highest inhibition activity: all assays above
